Results: PubChem BioAssay AID1918933 (Molecular Pharmacology Branch, DTP, NCI, 2023)

Tested on: 186277-243-T-J2-PDC complex spheroid viability
Assay: Anticancer human tumor 186277-243-T-J2-PDC patient-derived colon adenocarcinoma cell line growth inhibition
Settings: for IC50: curve of first compound; for viability, T/C: stronger effect = lower value
Text: Multicellular complex tumor spheroid response to LSD1 Inhibitor Iadademstat in combination with a variety of drugs and investigational agents in selected tumor cell lines
The current study was undertaken to assess response to LSD1 inhibitors in combination with standard-of-care drugs and investigational agents in solid tumor complex spheroid models as well as in the K-562 leukemia. Complex spheroids include a stromal component modeled by human endothelial cells (HUVEC) and fibroblasts modeled by human mesenchymal stem cells (MSCs). The concentration ranges selected for each drug and investigational agent were based upon clinically achievable concentrations if the clinical Cmax of the agent was known.
Compounds. The drugs and investigational agents used in this study are listed on Table 1. All of the agents used, including staurosporine (NSC755774) and gemcitabine (NSC613327), were obtained from the Developmental Therapeutics Program, NCI. FDA-approved anticancer drugs are available from the NCI at http://dtp.nci.nih.gov/branches/dscb/oncology_drugset_explanation.html. Drugs and investigational agents were >95% pure by proton nuclear magnetic resonance (NMR) and liquid chromatography/mass spectrometry (LC/MS). Stock solutions were prepared at 400x in DMSO, stored at -70 degrees C, and diluted in fresh medium prior to their use. The final concentration of DMSO in cell culture wells never exceeded 0.25% (v/v). The FDA-approved anticancer drug set is available from the Developmental Therapeutics Program at https://dtp.cancer.gov/organization/dscb/obtaining/available_plates.htm. All drugs and investigational agents were tested over a range starting from a high concentration at or near the clinical Cmax and decreasing in half-log increments. If the clinical Cmax for an agent had not been determined, the highest concentration tested was 10 microM.
Cell Lines. The patient-derived cancer cell (PDC) lines: 292921-168-R-J2-PDC, K24384-001-R-PDC, and 521955-158-R2-J5-PDC pancreatic carcinomas, 556581-035-R-J1 ovarian carcinoma, 324938-238-R-J1-PDC, 855422-203-R-J1-PDC and 883617-216-R-J1-PDC urothelial bladder carcinomas, 743489-274-T-PDC renal cell carcinoma, 138582-R-J1 Merkel cell tumor, K60290-347-R-J1 and K57222-313-R-J1-PDC glioblastomas, 653999-131-R-J2-PDC, LG0703-F948-PDC, and 349418-098-R-PDC non-small cell lung carcinomas, 885512-296-R-J2-PDC, 171881-019-R-J1-PDC breast carcinomas and 186277-243-T-J2-PDC and 233499-124-R-J2-PDC colon carcinomas were obtained from the NCI Patient-Derived Models Repository (PDMR, https://pdmr.cancer.gov). The established cell lines NCI/ADR-RES (RRID:CVCL_14520 and OVCAR-5 (RRID:CVCL_1628) ovarian carcinomas, 786-O (RRID:CVCL_1051) and A498 (RRID:CVCL_A498) renal cell carcinoma, NCI-H211 (ATCC, cat. CRL-5824; RRID:CVCL_1529), NCI-H196 (ATCC, cat. CRL-5823, RRID:CVCL_1509), SW 1271 (ATCC, cat. CRL-2177, RRID:CVCL_1716) and NCI-H1876 (ATCC, cat. CRL-5902, RRID:CVCL_1503) small cell lung carcinomas, MDA-MB-231 (RRID:CVCL_0062) and MDA-MB-468 (RRID:CVCL_0419)breast carcinomas (10-12). Pooled donor human umbilical vein endothelial cells (HUVEC, Lonza, cat. CC-2519) and human mesenchymal stem cells (hMSC, Lonza, cat. PT-2501) were purchased from Lonza (Walkersville, MD).
Cell Culture. All cells were maintained in an incubator at 37 degrees C and 5% CO2 with 95% humidity. The PDC lines were cultured according to standard operating procedures established by the NCI PDMR (https://pdmr.cancer.gov). Briefly all PDCs were thawed and cultured in Matrigel-coated flasks prepared with a working solution of 1X Ham's F-12 nutrient mix, without supplementation (Invitrogen, Waltham, MA, cat. 11765054), 100 U/mL penicillin-streptomycin (Invitrogen, cat. 15140122), and 2.5% Matrigel (Corning Inc., Corning, NY, cat. 354248) for the first three passages. […]

[1] = second compound 0.1 µM, first compound 0.00949 µM
[2] = second compound 0.1 µM, first compound 0.03 µM
[3] = second compound 0.1 µM, first compound 0.0949 µM
[4] = second compound 0.1 µM, first compound 0.3 µM
[5] = second compound 0.316 µM, first compound 0.00949 µM
[6] = second compound 0.316 µM, first compound 0.03 µM
[7] = second compound 0.316 µM, first compound 0.0949 µM
[8] = second compound 0.316 µM, first compound 0.3 µM
[9] = second compound 1 µM, first compound 0.00949 µM
[10] = second compound 1 µM, first compound 0.03 µM
[11] = second compound 1 µM, first compound 0.0949 µM
[12] = second compound 1 µM, first compound 0.3 µM
[13] = second compound 3.16 µM, first compound 0.00949 µM
[14] = second compound 3.16 µM, first compound 0.03 µM
[15] = second compound 3.16 µM, first compound 0.0949 µM
[16] = second compound 3.16 µM, first compound 0.3 µM
[17] = second compound 10 µM, first compound 0.00949 µM
[18] = second compound 10 µM, first compound 0.03 µM
[19] = second compound 10 µM, first compound 0.0949 µM
[20] = second compound 10 µM, first compound 0.3 µM
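Also: 7 day exposure to compounds.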
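For viability, T/C in this document: 100% = DMSO vehicle control viability.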

## CC[C@@]1(O)C(=O)OCc2c1cc1n(c2=O)Cc2cc3c(CN(C)C)c(O)ccc3nc2-1 + NC1CC1c1ccc(-c2cccc(O)c2)cc1
Second compound 0.1 µM
  IC50: 0.0641 µM
Second compound 0.316 µM
  IC50: 0.0586 µM
Second compound 1 µM
  IC50: 0.0609 µM
Second compound 3.16 µM
  IC50: 0.0644 µM
Second compound 10 µM
  IC50: 0.0567 µM
Second compound 0.1 µM, first compound 0.000316 µM
  viability, T/C: 117%
Second compound 0.1 µM, first compound 0.001 µM
  viability, T/C: 125%
Second compound 0.1 µM, first compound 0.00316 µM
  viability, T/C: 153%
Second compound 0.1 µM, first compound 0.01 µM
  viability, T/C: 116%
Second compound 0.1 µM, first compound 0.0316 µM
  viability, T/C: 74.5%
Second compound 0.1 µM, first compound 0.1 µM
  viability, T/C: 34.9%
Second compound 0.316 µM, first compound 0.000316 µM
  viability, T/C: 101%
Second compound 0.316 µM, first compound 0.001 µM
  viability, T/C: 96.5%
Second compound 0.316 µM, first compound 0.00316 µM
  viability, T/C: 139%
Second compound 0.316 µM, first compound 0.01 µM
  viability, T/C: 118%
Second compound 0.316 µM, first compound 0.0316 µM
  viability, T/C: 71.7%
Second compound 0.316 µM, first compound 0.1 µM
  viability, T/C: 31.2%
Second compound 1 µM, first compound 0.000316 µM
  viability, T/C: 90.7%
Second compound 1 µM, first compound 0.001 µM
  viability, T/C: 108%
Second compound 1 µM, first compound 0.00316 µM
  viability, T/C: 127%
Second compound 1 µM, first compound 0.01 µM
  viability, T/C: 119%
Second compound 1 µM, first compound 0.0316 µM
  viability, T/C: 73.1%
Second compound 1 µM, first compound 0.1 µM
  viability, T/C: 32.5%
Second compound 3.16 µM, first compound 0.000316 µM
  viability, T/C: 101%
Second compound 3.16 µM, first compound 0.001 µM
  viability, T/C: 97.8%
Second compound 3.16 µM, first compound 0.00316 µM
  viability, T/C: 119%
Second compound 3.16 µM, first compound 0.01 µM
  viability, T/C: 131%
Second compound 3.16 µM, first compound 0.0316 µM
  viability, T/C: 76.3%
Second compound 3.16 µM, first compound 0.1 µM
  viability, T/C: 33.6%
Second compound 10 µM, first compound 0.000316 µM
  viability, T/C: 103%
Second compound 10 µM, first compound 0.001 µM
  viability, T/C: 96.4%
Second compound 10 µM, first compound 0.00316 µM
  viability, T/C: 123%
Second compound 10 µM, first compound 0.01 µM
  viability, T/C: 116%
Second compound 10 µM, first compound 0.0316 µM
  viability, T/C: 74%
Second compound 10 µM, first compound 0.1 µM
  viability, T/C: 26.7%

## COc1cc(C2c3cc4c(cc3C(OC3OC5COC(C)OC5C(O)C3O)C3COC(=O)C23)OCO4)cc(OC)c1O (stereo not given) + NC1CC1c1ccc(-c2cccc(O)c2)cc1
Second compound 0.1 µM
  IC50: 0.596 µM
Second compound 0.316 µM
  IC50: 0.586 µM
Second compound 1 µM
  IC50: 0.667 µM
Second compound 3.16 µM
  IC50: 0.635 µM
Second compound 10 µM
  IC50: 0.458 µM
[1]
  viability, T/C: 107%
[2]
  viability, T/C: 134%
[3]
  viability, T/C: 116%
[4]
  viability, T/C: 73.7%
Second compound 0.1 µM, first compound 0.949 µM
  viability, T/C: 36.2%
Second compound 0.1 µM, first compound 3 µM
  viability, T/C: 17.4%
[5]
  viability, T/C: 103%
[6]
  viability, T/C: 134%
[7]
  viability, T/C: 118%
[8]
  viability, T/C: 73%
Second compound 0.316 µM, first compound 0.949 µM
  viability, T/C: 36.6%
Second compound 0.316 µM, first compound 3 µM
  viability, T/C: 18%
[9]
  viability, T/C: 99.7%
[10]
  viability, T/C: 134%
[11]
  viability, T/C: 121%
[12]
  viability, T/C: 80.9%
Second compound 1 µM, first compound 0.949 µM
  viability, T/C: 38.6%
Second compound 1 µM, first compound 3 µM
  viability, T/C: 17.7%
[13]
  viability, T/C: 100%
[14]
  viability, T/C: 137%
[15]
  viability, T/C: 133%
[16]
  viability, T/C: 79%
Second compound 3.16 µM, first compound 0.949 µM
  viability, T/C: 39.9%
Second compound 3.16 µM, first compound 3 µM
  viability, T/C: 17.4%
[17]
  viability, T/C: 94.3%
[18]
  viability, T/C: 146%
[19]
  viability, T/C: 119%
[20]
  viability, T/C: 64.1%
Second compound 10 µM, first compound 0.949 µM
  viability, T/C: 29.9%
Second compound 10 µM, first compound 3 µM
  viability, T/C: 11.2%

## Nc1ccn(C2OC(CO)C(O)C2(F)F)c(=O)n1 (stereo not given) + NC1CC1c1ccc(-c2cccc(O)c2)cc1
Second compound 0.1 µM
  IC50: 0.00241 µM
Second compound 0.316 µM
  IC50: 0.00218 µM
Second compound 1 µM
  IC50: 0.00252 µM
Second compound 3.16 µM
  IC50: 0.00231 µM
Second compound 10 µM
  IC50: 0.00234 µM
Second compound 0.1 µM, first compound 0.000949 µM
  viability, T/C: 112%
Second compound 0.1 µM, first compound 0.003 µM
  viability, T/C: 35.5%
[1]
  viability, T/C: 14.2%
[2]
  viability, T/C: 11.6%
[3]
  viability, T/C: 12.2%
[4]
  viability, T/C: 13.4%
Second compound 0.316 µM, first compound 0.000949 µM
  viability, T/C: 103%
Second compound 0.316 µM, first compound 0.003 µM
  viability, T/C: 29.9%
[5]
  viability, T/C: 14.5%
[6]
  viability, T/C: 12%
[7]
  viability, T/C: 12.2%
[8]
  viability, T/C: 12.8%
Second compound 1 µM, first compound 0.000949 µM
  viability, T/C: 116%
Second compound 1 µM, first compound 0.003 µM
  viability, T/C: 38.4%
[9]
  viability, T/C: 14.9%
[10]
  viability, T/C: 12.2%
[11]
  viability, T/C: 11.9%
[12]
  viability, T/C: 13.6%
Second compound 3.16 µM, first compound 0.000949 µM
  viability, T/C: 103%
Second compound 3.16 µM, first compound 0.003 µM
  viability, T/C: 34.3%
[13]
  viability, T/C: 15.8%
[14]
  viability, T/C: 11.7%
[15]
  viability, T/C: 13.8%
[16]
  viability, T/C: 13.4%
Second compound 10 µM, first compound 0.000949 µM
  viability, T/C: 98.2%
Second compound 10 µM, first compound 0.003 µM
  viability, T/C: 36.7%
[17]
  viability, T/C: 15.5%
[18]
  viability, T/C: 11.2%
[19]
  viability, T/C: 12.7%
[20]
  viability, T/C: 13.5%
